Values quoted from earlier work in patent US20060198888A1, “Tolperisone-containing pharmaceutical preparation with controllable active-substance release for oral administration” (Sanochemia Pharmazeutika AG, priority 2004, published 2006).
Read-outs that look alike come from different tables or passages of the source.

Columns and labels:
[1] = JP-A-53-40779
[2] = rat

extent of in-vivo inversion into R(−) tolperisone [2] | fraction converted by in-vivo inversion into S(+) tolperisone [2] | Structure (SMILES) | pharmacological effect ([1]; listed as d-tolperisone) | pharmacological effect ([1]; listed as 1-tolperisone)
up to 20% |  | Cc1ccc(C(=O)C(C)CN2CCCCC2)cc1 (stereo not drawn) [S(+) tolperisone] | muscle-relaxing effect | 
 | up to 20% | Cc1ccc(C(=O)C(C)CN2CCCCC2)cc1 (stereo not drawn) [R(−) tolperisone] |  | vaso- or bronchodilatory effect
